Results on one substance are retold here after patent US20140309400A1, “Use of Cell-Permeable Peptide Inhibitors of the JNK Signal Transduction Pathway for the Treatment of Dry Eye Syndrome” (Xigen Inflammation Ltd., priority 2011, published 2014).

Non-standard residues stand in square brackets, D forms with d.

Common to all, as to format: in vivo, female C57BL/6 mice
The subject of experiment [1] is mouse model of scopolamine-induced dry eye. Put plainly: Phenol red thread tear test (PRTT) in scopolamine-induced dry eye mice. To be noted: for Mean PRTT AUC: TID, OU, 5 μL/eye, AUC Day 7-21. Here is the method: The study consisted of a total of 5 groups of female C57BL/6 mice, comprising 4 groups of 12 mice each and an additional group of 4 mice. Bilateral short-term dry eye was induced by a combination of scopolamine hydrobromide (Sigma-Aldrich Corp., St. Louis, Mo.) injection (subcutaneous (SC), four times daily, 0.5 mg/dose, Days 0-21) and by exposing mice to the drying environment of constant air draft. Starting on Day 1, mice of Groups 1-4 were treated three times daily (TID) for 21 days with bilateral topical ocular (oculus uterque; OU) administration (5 μL/eye/dose) of vehicle (0.9% sterile saline; negative control article); or the peptide of SEQ ID NO: 11 (0.06%, 0.25% and 0.6%). Mice of Group 5 were maintained as un-induced, (no dry eye) untreated controls. During the in-life (treatment) period, clinical observations were recorded once daily; slit-lamp examination (SLE) with corneal fluorescein staining, tear break-up time test (TBUT), and phenol red thread test (PRTT) were performed three times per week. Necropsies were performed on Day 22; eyes, eye lids, conjunctivae, and lacrimal glands were collected from both eyes of each animal. Tissues from the right eyes (oculus dexter, OD) were fixed and then evaluated microscopically. Tissues from the left eyes (oculus sinister; OS) were flash-frozen in liquid nitrogen and stored frozen at −80° C. for possible subsequent analyses. Tear production was measured three times a week in both eyes using PRTT test strips (Zone-Quick; Menicon, Nagoya, Japan). Prior to the first treatment of the day, a thread was applied to the lateral canthus of the conjunctival fornix of each eye for 30 seconds under slit-lamp biomicroscopy. Tear migration up the tread (i.e., the length of the wetted cotton thread) was measured using a millimeter scale.

The test system is the same in experiment [2]. Put plainly: Tear break-up time (TBUT) test in scopolamine-induced dry eye mice. The note with it: for Mean Calculated TBUT AUC: TID, OU, 5 μL/eye, Days 1 to 21. The protocol: The study consisted of a total of 5 groups of female C57BL/6 mice, comprising 4 groups of 12 mice each and an additional group of 4 mice. Bilateral short-term dry eye was induced by a combination of scopolamine hydrobromide (Sigma-Aldrich Corp., St. Louis, Mo.) injection (subcutaneous (SC), four times daily, 0.5 mg/dose, Days 0-21) and by exposing mice to the drying environment of constant air draft. Starting on Day 1, mice of Groups 1-4 were treated three times daily (TID) for 21 days with bilateral topical ocular (oculus uterque; OU) administration (5 μL/eye/dose) of vehicle (0.9% sterile saline; negative control article); or the peptide of SEQ ID NO: 11 (0.06%, 0.25% and 0.6%). Mice of Group 5 were maintained as un-induced, (no dry eye) untreated controls. During the in-life (treatment) period, clinical observations were recorded once daily; slit-lamp examination (SLE) with corneal fluorescein staining, tear break-up time test (TBUT), and phenol red thread test (PRTT) were performed three times per week. Necropsies were performed on Day 22; eyes, eye lids, conjunctivae, and lacrimal glands were collected from both eyes of each animal. Tissues from the right eyes (oculus dexter, OD) were fixed and then evaluated microscopically. Tissues from the left eyes (oculus sinister; OS) were flash-frozen in liquid nitrogen and stored frozen at −80° C. for possible subsequent analyses. The TBUT test was conducted three times weekly by measuring the time elapsed in seconds between a complete blink after application of fluorescein to the cornea and the appearance of the first random dry spot in the tear film. […] At least ninety seconds later, corneal epithelial damage was graded using a slit-lamp with a cobalt blue filter after another drop of 0.1% fluorescein was reapplied to the cornea; the cornea then was scored per the Draize ocular scale.

For experiment [3] the test system is unchanged. Put plainly: Histopathology of the right eye (cornea) at necropsy Day 22 in scopolamine-induced dry eye mice. The protocol:
The study consisted of a total of 5 groups of female C57BL/6 mice, comprising 4 groups of 12 mice each and an additional group of 4 mice. Bilateral short-term dry eye was induced by a combination of scopolamine hydrobromide (Sigma-Aldrich Corp., St. Louis, Mo.) injection (subcutaneous (SC), four times daily, 0.5 mg/dose, Days 0-21) and by exposing mice to the drying environment of constant air draft. Starting on Day 1, mice of Groups 1-4 were treated three times daily (TID) for 21 days with bilateral topical ocular (oculus uterque; OU) administration (5 μL/eye/dose) of vehicle (0.9% sterile saline; negative control article); or the peptide of SEQ ID NO: 11 (0.06%, 0.25% and 0.6%). […] During the in-life (treatment) period, clinical observations were recorded once daily; slit-lamp examination (SLE) with corneal fluorescein staining, tear break-up time test (TBUT), and phenol red thread test (PRTT) were performed three times per week. […] Tissues from the right eyes (oculus dexter, OD) were fixed and then evaluated microscopically. […] Stained slides were evaluated via light microscopy. […] These tissues were scored for injury based upon a 0-4 scale, with 0 being normal, 1 being minimal, 2 being mild, 3 being moderate, and 4 being severe. […] Conjunctivae were scored for erosion and inflammation as well as presence or absence of goblet cells.

With “NH2-DQSRPVQPFLNLTTPRKPRPPRRRQRRKKRG-COOH (H-[dD][dQ][dS][dR][dP][dV][dQ][dP][dF][dL][dN][dL][dT][dT][dP][dR][dK][dP][dR][dP][dP][dR][dR][dR][dQ][dR][dR][dK][dK][dR]G-OH) [SEQ ID NO: 11]”, the “Dose dependence of PRTT” value in experiment [1] (0.06%, 0.25% and 0.6% (Groups 2, 3 and 4)) was “generally dose-dependent increases in PRTT”. Moreover, the “Mean PRTT AUC” value is 39.96 in experiment [1] (Group 2: 0.06% (low dose)), 42.79 in experiment [1] (Group 3: 0.25% (mid dose)) and 43.17 in experiment [1] (Group 4: 0.6% (high dose)). Besides, the “Mean Calculated TBUT AUC” value is 88.54 in experiment [2] (Group 2: 0.06% (low dose)), 91.19 in experiment [2] (Group 3: 0.25% (mid dose)) and 89.98 in experiment [2] (Group 4: 0.6% (high dose)). In addition, the “TBUT means compared with vehicle group” value in experiment [2] (low, medium and high dose (Groups 2, 3 and 4)) is listed as “above the vehicle group”. Further, in experiment [2] (low, mid and high dose levels (Groups 2-4)), the “Dose dependence of TBUT” value is reported as “generally dose-dependent increases in TBUT”. In addition, the “Corneal changes (histopathology) in comparison to the other treatment groups” value in experiment [3] (Group 2, low dose (0.06%)) was “slightly more severe”. Also, the “Reducing/ameliorating the corneal changes (histopathology)” value in experiment [3] (high dose (0.6%)) is recorded as “most effective”.
